Molecular target: T1, Ba/F3 cell EGFR Exon20 ins NPH (Homo sapiens, UniProt P00533, INS773NPH)
T1 construct: expressed in transfected cells; host or cells: Ba/F3
Experiment: Ba/F3 cell proliferation suppression, EGFR Exon20 ins NPH
Format: cell-based
Conditions: GI50 class; Ba/F3 cell line with NPH inserted at Exon20 of EGFR; 72 hours
Description: The following experiment was carried out to evaluate the suppression activity of the compounds according to the present invention against proliferation of Ba/F3 and lung cancer cells which express EGFR mutations.
Of the cancer cell lines expressing the EGFR gene, A549 was cultured after adding 10% FBS (HyClone) to DMEM (Invitrogen), and RPMI-1640 (Invitrogen) with 10% FBS was used for the other cancer cells. For the Ba/F3 cells, RPMI-1640 with 10% FBS and 5 ng/ml IL-3 (R&D Systems) was used. The transduced Ba/F3 cells were cultured by adding 1 ug/ml puromycin (Invitrogen) to the same medium.
24 hours before treatment with the compounds, 3000 to 5000 cells were distributed into each well of a white clear bottom 96 well plate (Corning). The compounds were diluted in dimethylsulfoxide (dilution ratio 3:1; 12 concentrations total) and injected 0.5 ul each for a final concentration of 0.3 nM to 50 um. As for measurement of live cells, 72 hours after treatment with the compounds, a CellTiter-Glo luminescent cell-viability reagent (Promega) was used to store the cells at room temperature for 10 minutes, followed by measurement of luminescence using a reader (SynergyNeo, Biotek). Each test was repeated three times.
The result was calculated as a cell growth ratio (%) compared to a control. The program GraphPad Prism version 5.0 was used to draw the graphs and calculate the GI50 values.

Compound	Ba/F3 (NPH) Activity
C=CC(=O)Nc1cc(Nc2cc(N3OCC[C@@H]3c3cccc(OC)c3)ncn2)c(OC)cc1N1CCC(N2CCN(C)CC2)CC1 [Example 40, N-(4-methoxy-5-((6-((R)-3-(3-methoxyphenyl)isoxazolidine-2-yl)pyrimidine-4-yl)amino)-2-(4-(4-methylpiperazine-1-yl)piperidine-1-yl)phenyl) acrylamide]	B (50 nM ≤ GI50 < 500 nM)
C=CC(=O)Nc1cc(Nc2cc(N3OCC[C@@H]3c3cccc(Cl)c3)ncn2)c(OC)cc1N1CCC(N2CC[C@H](N(C)C)C2)CC1 [compound 508, N-(5-((6-((R)-3-(3-chlorophenyl)isoxazolidine-2-yl)pyrimidine-4-yl)amino)-2-(4-((S)-3-(dimethylamino)pyrolidine-1-yl)piperidine-1-yl)-4-methoxyphenyl) acrylamide]	A (GI50 < 50 nM)
C=CC(=O)Nc1cc(Nc2cc(N3OCC[C@@H]3c3ccc(Cl)c(F)c3)ncn2)c(OC)cc1N1CCC(N2C[C@H]3C[C@@H]2CO3)CC1 [Example 256, N-(2-(4-((1R,4R)-2-oxa-5-azabicyclo[2.2.1]heptane-5-yl)piperidine-1-yl)-5-((6-((R)-3-(4-chloro-3-fluorophenyl)isoxazolidine-2-yl)pyrimidine-4-yl)amino)-4-methoxyphenyl) acrylamide]	A (GI50 < 50 nM)
C=CC(=O)Nc1cc(Nc2cc(N3OCC[C@@H]3Cc3cccc(Cl)c3C)ncn2)c(OC)cc1N1CCN(C2CC2)CC1 [compound 1026, N-(5-((6-((S)-3-(3-chloro-2-methylbenzyl)isoxazolidine-2-yl)pyrimidine-4-yl)amino)-2-(4-cyclopropylpiperazine-1-yl)-4-methoxyphenyl) acrylamide]	B (50 nM ≤ GI50 < 500 nM)
C=CC(=O)Nc1cc(Nc2cc(N3OCC[C@@H]3c3cccc(Cl)c3Cl)ncn2)c(OC)cc1N1C[C@H]2C[C@@H]1CO2 [compound 523, N-(2-((1R,4R)-2-oxa-5-azabicyclo[2.2.1]heptane-5-yl)-5-((6-((R)-3-(2,3-dichlorophenyl)isoxazolidine-2-yl)pyrimidine-4-yl)amino)-4-methoxyphenyl) acrylamide]	A (GI50 < 50 nM)
C=CC(=O)Nc1cc(Nc2cc(N3OCC[C@@H]3c3ccc(F)c(Cl)c3)ncn2)c(OC)cc1N1CCN(C(C)=O)CC1 [compound 907, N-(2-(4-acetylpiperazine-1-yl)-5-((6-((R)-3-(3-chloro-4-fluorophenyl)isoxazolidine-2-yl)pyrimidine-4-yl)amino)-4-methoxyphenyl) acrylamide]	A (GI50 < 50 nM)
C=CC(=O)Nc1cc(Nc2cc(N3OCC[C@@H]3c3ccc(F)c(F)c3)ncn2)c(OC)cc1N1CCC(N(C)C)CC1 [compound 459, N-(5-((6-((R)-3-(3,4-difluorophenyl)isoxazolidine-2-yl)pyrimidine-4-yl)amino)-2-(4-(dimethylamino)piperidine-1-yl)-4-methoxyphenyl) acrylamide]	A (GI50 < 50 nM)
C=CC(=O)Nc1cc(Nc2cc(N3OCC[C@@H]3c3ccc(F)cc3F)ncn2)c(OC)cc1N1CCC(N2CCN(C3CCN(C)CC3)CC2)CC1 [compound 430, N-(5-((6-((R)-3-(2,4-difluorophenyl)isoxazolidine-2-yl)pyrimidine-4-yl)amino)-4-methoxy-2-(4-(4-(1-methylpiperidine-4-yl)piperazine-1-yl)piperidine-1-yl)phenyl)acrylamide]	A (GI50 < 50 nM)
C=CCN1CCN(C2CCN(c3cc(OC)c(Nc4cc(N5OCC[C@@H]5c5ccc(F)c(Cl)c5)ncn4)cc3NC(=O)C=C)CC2)CC1 [Example 89, N-(2-(4-(4-allylpiperazine-1-yl)piperidine-1-yl)-5-((6-((R)-3-(3-chloro-4-fluorophenyl)isoxazolidine-2-yl)pyrimidine-4-yl)amino)-4-methoxyphenyl) acrylamide]	A (GI50 < 50 nM)
C=CC(=O)Nc1cc(Nc2cc(N3OCC[C@@H]3c3cccc(Cl)c3C)ncn2)c(OC)cc1N1CCC(N2CC3CCC(C2)N3C2CC2)CC1 [Example 154, N-(5-((6-((R)-3-(3-chloro-2-methylphenyl)isoxazolidine-2-yl)pyrimidine-4-yl)amino)-2-(4-(8-cyclopropyl-3,8-diazabicyclo [3.2.1]octan-3-yl)piperidine-1-yl)-4-methoxyphenyl) acrylamide]	A (GI50 < 50 nM)
C=CC(=O)Nc1cc(Nc2cc(N3OCC[C@@H]3c3cccc(C#N)c3)ncn2)c(OC)cc1N1CCC(N2CCN(C(C)=O)CC2)CC1 [compound 434, N-(2-(4-(4-acetylpiperazine-1-yl)piperidine-1-yl)-5-((6-((R)-3-(3-cyanophenyl)isoxazolidine-2-yl)pyrimidine-4-yl)amino)-4-methoxyphenyl) acrylamide]	A (GI50 < 50 nM)
C=CC(=O)Nc1cc(Nc2cc(N3OCC[C@@H]3c3cc(F)cc(F)c3)ncn2)c(OC)cc1N1CCN(C)C[C@@H]1C [compound 919, N-(5-((6-((R)-3-(3,5-difluorophenyl)isoxazolidine-2-yl)pyrimidine-4-yl)amino)-2-((S)-2,4-dimethylpiperazine-1-yl)-4-methoxyphenyl) acrylamide]	A (GI50 < 50 nM)
C=CC(=O)Nc1cc(Nc2cc(N3OCC[C@@H]3c3cccc(Cl)c3)ncn2)c(OC)cc1N1CCC(N2CC[C@@H](N(C)C)C2)CC1 [compound 413, N-(5-((6-((R)-3-(3-chlorophenyl)isoxazolidine-2-yl)pyrimidine-4-yl)amino)-2-(4-((R)-3-(dimethylamino)pyrolidine-1-yl)piperidine-1-yl)-4-methoxyphenyl) acrylamide]	A (GI50 < 50 nM)
C=CC(=O)Nc1cc(Nc2cc(N3OCC[C@@H]3c3cccc(F)c3F)ncn2)c(OC)cc1N1CCC(N2CCN(C3CC3)[C@@H](C)C2)CC1 [Example 175, N-(2-(4-((S)-4-cyclopropyl-3-methylpiperazine-1-yl)piperidine-1-yl)-5-((6-((R)-3-(2,3-difluorophenyl)isoxazolidine-2-yl)pyrimidine-4-yl)amino)-4-methoxyphenyl) acrylamide]	A (GI50 < 50 nM)
C=CC(=O)Nc1cc(Nc2cc(N3OCC[C@@H]3Cc3cccc(Cl)c3Cl)ncn2)c(OC)cc1N1CCC(N2CCN(C(C)C)CC2)CC1 [compound 1015, N-(5-((6-((S)-3-(2,3-dichlorobenzyl)isoxazolidine-2-yl)pyrimidine-4-yl)amino)-2-(4-(4-isopropylpiperazine-1-yl)piperidine-1-yl)-4-methoxyphenyl) acrylamide]	A (GI50 < 50 nM)
C=CC(=O)Nc1cc(Nc2cc(N3OCC[C@@H]3c3cc(F)ccc3F)ncn2)c(OC)cc1N1CCN(C(C)=O)CC1 [compound 298, N-(2-(4-acetylpiperazine-1-yl)-5-((6-((R)-3-(2,5-difluorophenyl)isoxazolidine-2-yl)pyrimidine-4-yl)amino)-4-methoxyphenyl) acrylamide]	A (GI50 < 50 nM)
C=CC(=O)Nc1cc(Nc2cc(N3OCC[C@@H]3c3ccc(F)cc3)ncn2)c(OC)cc1N1CCN(C)CC1 [compound 785, N-(5-((6-((R)-3-(4-fluorophenyl)isoxazolidine-2-yl)pyrimidine-4-yl)amino)-4-methoxy-2-(4-methylpiperazine-1-yl)phenyl)acrylamide]	A (GI50 < 50 nM)
C=CC(=O)Nc1cc(Nc2cc(N3OCC[C@@H]3c3ccc(F)c(Cl)c3F)ncn2)c(OC)cc1N1C[C@@H](C)O[C@@H](C)C1 [compound 667, N-(5-((6-((R)-3-(3-chloro-2,4-difluorophenyl)isoxazolidine-2-yl)pyrimidine-4-yl)amino)-2-((2S,6R)-2,6-dimethylmorpholino)-4-methoxyphenyl) acrylamide]	B (50 nM ≤ GI50 < 500 nM)
C=CC(=O)Nc1cc(Nc2cc(N3OCC[C@@H]3Cc3ccccc3)ncn2)c(OC)cc1N1CCN(C2CCCC2)CC1 [compound 972, N-(5-((6-((S)-3-benzylisoxazolidine-2-yl)pyrimidine-4-yl)amino)-2-(4-cyclopentylpiperazine-1-yl)-4-methoxyphenyl) acrylamide]	A (GI50 < 50 nM)
C=CC(=O)Nc1cc(Nc2cc(N3OCC[C@@H]3c3cccc(F)c3)ncn2)c(OC)cc1N1C[C@@H]2C[C@H]1CO2 [compound 832, N-(2-((1S,4S)-2-oxa-5-azabicyclo[2.2.1]heptane-5-yl)-5-((6-((R)-3-(3-fluorophenyl)isoxazolidine-2-yl)pyrimidine-4-yl)amino)-4-methoxyphenyl) acrylamide]	A (GI50 < 50 nM)
C=CC(=O)Nc1cc(Nc2cc(N3OCC[C@@H]3c3cccc(Cl)c3F)ncn2)c(OC)cc1N1CCC(N2CCO[C@H](C)C2)CC1 [compound 357, N-(5-((6-((R)-3-(3-chloro-2-fluorophenyl)isoxazolidine-2-yl)pyrimidine-4-yl)amino)-4-methoxy-2-(4-((R)-2-methylmorpholino)piperidine-1-yl)phenyl) acrylamide]	A (GI50 < 50 nM)
